Like-named read-outs stand apart in the source and are kept apart here.
Legend:
[1] = system: NCM460 human normal colon epithelial cell line; experiment: MTT cytotoxicity assay, NCM460; format: cell-based; settings: 48 h, read-out: IC50 (Means ± SD) NCM460
Description: (§1) The cytotoxic activity of the compounds on cancer cell lines, including HT-29, MCF-7, A375, K562, andNCM460cell lines, was measured using the MTT assay with a small modification. Briefly, cells were plated in 96-well plates at a density of 1 × 10^4 cells per well and allowed to grow overnight, then the medium was replaced with fresh RPMI1640 medium containing serially diluted compounds, and the cells were further incubated at 37 °C with 5% CO2 for 48 h. In this experiment, 1 and 6 were diluted into six different series concentrations from 10 μg/mL to 0.0097 μg/mL with 4× dilution each, while 2 and 3 were diluted from 500 μg/mL to 2.06 μg/mL, and 4, 5, and 7 from 300 μg/mL to 1.23 μg/mL with 3× dilution each. Paclitaxel, a clinical medication used as a positive control, was diluted from 100 μg/mL to 3.125 μg/mL with […]. HT-29, MCF-7, and A375 were all cultured in serum-free RPMI1640, while the K562 was cultured in DMEM containing FBS throughout this experiment. The culture medium was removed after the incubation, and then 100 μL of the 5 mg/mL MTT solution was added to each well and further incubated at 37 °C for 4 h. Finally, the supernatants were removed, and 150 μL of dimethyl sulfoxide (DMSO) was added to each well. After shaking the plates for 10 min at room temperature, the optical density value was measured spectrophotometrically at 570 nm using the microplate reader. The IC50 value (50% inhibitory concentration) was determined to evaluate the cell viability of these cell lines. In this experiment, Graph Pad Prism 5software (San Diego, CA, USA) was used to calculate the half inhibitory concentration (IC50) values. Each experiment was independently repeated at least three times and represented as the means ± standard deviation (SD).

[2] = system: K562 human chronic myeloid leukemia cell line; experiment: MTT cytotoxicity assay, K562; format: cell-based; settings: 48 h, read-out: IC50 (Means ± SD) K562
Description: as §1

[3] = system: HT-29 human colon cancer cell line; experiment: MTT cytotoxicity assay, HT-29; format: cell-based; settings: 48 h, read-out: IC50 (Means ± SD) HT-29
Description: as §1

[4] = system: A375 human malignant melanoma cell line; experiment: MTT cytotoxicity assay, A375; format: cell-based; settings: A-375, 48 h, read-out: IC50 (Means ± SD) A375
Description: as §1

[5] = system: HT-29, MCF-7, A375, K562 and NCM460 cell lines; experiment: MTT cytotoxicity assay, whole panel of cell lines; format: cell-based, human; settings: for cytotoxic activity toward the tested cell lines (in words): all tested cell lines; for IC50: Homo sapiens, range over all tested cell lines, read-out: IC50 values ranging over the tested cell lines
Description: as §1

[6] = system: MCF-7 human breast cancer cell line; experiment: MTT cytotoxicity assay, MCF-7; format: cell-based; settings: MCF7, 48 h, read-out: IC50 (Means ± SD) MCF-7
Description: as §1

[7] = medium containing FBS, NA = not active

SMILES: CC[C@H](O)CC(=O)CC[C@H](O)C(C)C(=O)O (some centres unmarked) [Compound 1]
- IC50 ([1]; normal colon epithelial cells): 27.9 ± 4.7 µM
- IC50 [2, 7]: 1.56 ± 0.21 µM
- IC50 ([3]; medium without FBS): 1.98 ± 1.04 µM
- IC50 ([4]; medium without FBS): 45 ± 1.21 µM
- cytotoxic activity toward the tested cell lines (in words) [5]: less activity
- IC50 ([6]; medium without FBS): 5.44 ± 1.33 µM

SMILES: C[C@H](C(=O)O)[C@@H]1CC[C@H](C[C@@H](C)O)O1 [Compound 2, nonactic acid]
- IC50 ([1]; normal colon epithelial cells): 1605 ± 14.4 µM
- IC50 [2, 7]: 83.6 ± 2.54 µM
- IC50 ([3]; medium without FBS): 44.4 ± 2.77 µM
- IC50 ([4]; medium without FBS): 185.9 ± 1.27 µM
- IC50 ([6]; medium without FBS): 289 ± 3.54 µM

SMILES: CC[C@@H](O)C[C@H]1CC[C@@H]([C@H](C)C(=O)O)O1 [Compound 3, homononactic acid]
- IC50 ([1]; normal colon epithelial cells): 1027 ± 8.01 µM
- IC50 [2, 7]: 57 ± 1.88 µM
- IC50 ([3]; medium without FBS): 39.9 ± 3.22 µM
- IC50 ([4]; medium without FBS): 146 ± 2.01 µM
- IC50 ([6]; medium without FBS): 99.1 ± 2.66 µM

SMILES: CCOC(=O)[C@@H](C)[C@@H]1CC[C@H](C[C@H](O)CC)O1 [Compound 4, ethyl homononactate]
- IC50 ([1]; normal colon epithelial cells): 249 ± 4.22 µM
- IC50 [2, 7]: 12.3 ± 0.54 µM
- IC50 ([3]; medium without FBS): 11.8 ± 1.83 µM
- IC50 ([4]; medium without FBS): 65.09 ± 0.62 µM
- IC50 ([6]; medium without FBS): 39.6 ± 2.57 µM

SMILES: CC[C@@H](O)C[C@H]1CC[C@@H]([C@H](C)C(=O)O[C@@H](CC)C[C@@H]2CC[C@H]([C@@H](C)C(=O)O)O2)O1 [Compound 5, homononactylhomononactate]
- IC50 ([1]; normal colon epithelial cells): 33.3 ± 3.31 µM
- IC50 [2, 7]: 14.2 ± 0.47 µM
- IC50 ([3]; medium without FBS): 38.1 ± 2.35 µM
- IC50 ([4]; medium without FBS): 30.7 ± 0.93 µM
- IC50 ([6]; medium without FBS): 16.7 ± 1.08 µM

SMILES: CC(C)[C@@H]1NC(=O)[C@H](C)OC(=O)[C@@H](C(C)C)NC(=O)[C@@H](C(C)C)OC(=O)[C@H](C(C)C)NC(=O)[C@H](C)OC(=O)[C@@H](C(C)C)NC(=O)[C@@H](C(C)C)OC(=O)[C@H](C(C)C)NC(=O)[C@H](C)OC(=O)[C@@H](C(C)C)NC(=O)[C@@H](C(C)C)OC1=O [Compound 6, valinomycin]
- cytotoxic activity toward the tested cell lines (in words) [5]: significant cytotoxic activities

SMILES: CC(C)CC1NC(=O)C2CCCN2C1=O (centres unmarked) [Compound 7, cyclo-(Pro-Leu)]
- IC50 ([1]; normal colon epithelial cells): 776 ± 11.4 µM
- IC50 [2, 7]: 21.7 ± 0.35 µM
- IC50 ([3]; medium without FBS): 102 ± 2.66 µM
- IC50 ([4]; medium without FBS): 51.1 ± 4.73 µM
- IC50 ([6]; medium without FBS): 78.8 ± 1.95 µM

SMILES: CCOC(=O)[C@@H](C)C1CCC(C[C@@H](C)O)O1 (some centres unmarked) [Compound 8]
- IC50 ([1]; normal colon epithelial cells): 164 ± 3.09 µM
- IC50 ([3]; medium without FBS): 441.3 ± 1.65 µM
- IC50 ([4]; medium without FBS): 445.9 ± 4.1 µM
- IC50 ([6]; medium without FBS): 847 ± 39.5 µM

SMILES: CC[C@@H](O)CC1CCC([C@H](C)C(=O)OC(C)C)O1 (some centres unmarked) [Compound 9]
- IC50 ([1]; normal colon epithelial cells): 29 ± 3.68 µM
- IC50 [2, 7]: 69.4 ± 3.9 µM
- IC50 ([3]; medium without FBS): 113 ± 3.68 µM
- IC50 ([4]; medium without FBS): 115 ± 3.66 µM
- cytotoxic activity toward the tested cell lines (in words) [5]: broad toxicity
- IC50 ([6]; medium without FBS): 171 ± 5.08 µM

SMILES: CCCCOC(=O)[C@@H](C)C1CCC(C[C@H](O)CC)O1 (some centres unmarked) [Compound 10]
- IC50 ([1]; normal colon epithelial cells): 109 ± 3.6 µM
- IC50 [2, 7]: 285.1 ± 2.44 µM
- IC50 ([3]; medium without FBS): 326.8 ± 1.4 µM
- IC50 ([4]; medium without FBS): 314.6 ± 0.57 µM
- IC50 ([6]; medium without FBS): 416.5 ± 3.9 µM

SMILES: CCCCCCCCCCOC(=O)[C@@H](C)C1CCC(C[C@@H](C)O)O1 (some centres unmarked) [Compound 11]
- IC50 ([1]; normal colon epithelial cells): 44.2 ± 0.64 µM
- IC50 [2, 7]: 38.2 ± 0.7 µM
- IC50 ([3]; medium without FBS): 43.2 ± 2.84 µM
- IC50 ([4]; medium without FBS): 24.29 ± 0.03 µM
- IC50 [5]: 24.3 to 44.2 µM
- IC50 ([6]; medium without FBS): 34.1 ± 1.87 µM

SMILES: CCCCCCCCCCCCCCOC(=O)[C@@H](C)C1CCC(C[C@H](O)CC)O1 (some centres unmarked) [Compound 12]
- IC50 ([1]; normal colon epithelial cells): 150 ± 4.03 µM
- IC50 [2, 7]: 187 ± 4.57 µM
- IC50 ([3]; medium without FBS): 209 ± 3.25 µM
- IC50 ([4]; medium without FBS): 127 ± 6.65 µM
- IC50 ([6]; medium without FBS): 485.6 ± 3.18 µM

SMILES: CCCCCCCCCCCCCCCCCCOC(=O)[C@@H](C)C1CCC(C[C@H](O)CC)O1 (some centres unmarked) [Compound 13]
- IC50 ([1]; normal colon epithelial cells): 299.3 ± 1.77 µM
- IC50 [2, 7]: 313 ± 3.29 µM
- IC50 ([3]; medium without FBS): 322 ± 4.17 µM
- IC50 ([4]; medium without FBS): 217.6 ± 0.99 µM
- IC50 ([6]; medium without FBS): 362.4 ± 0.96 µM

SMILES: CC[C@@H](O)CC1CCC([C@H](C)C(=O)OCc2ccccc2)O1 (some centres unmarked) [Compound 14]
- IC50 ([1]; normal colon epithelial cells): 21.1 ± 3.66 µM
- IC50 [2, 7]: 41.4 ± 2.84 µM
- IC50 ([3]; medium without FBS): 73.2 ± 1.05 µM
- IC50 ([4]; medium without FBS): 89.9 ± 1.09 µM
- IC50 [5]: 21.1 to 89.9 µM
- cytotoxic activity toward the tested cell lines (in words) [5]: broad toxicity
- IC50 ([6]; medium without FBS): 111 ± 3.89 µM

SMILES: CC[C@@H](O)CC1CCC([C@H](C)C(=O)Oc2ccc(C=O)cc2OC)O1 (some centres unmarked) [Compound 15]
- IC50 [2, 7]: 175 ± 3.28 µM
- IC50 ([3]; medium without FBS): 531 ± 5.46 µM
- IC50 ([4]; medium without FBS): 175 ± 6.11 µM

SMILES: CC[C@@H](O)CC1CCC([C@H](C)C(=O)Oc2ccc(-c3ccccc3)cc2)O1 (some centres unmarked) [Compound 16]
- IC50 ([1]; normal colon epithelial cells): 110 ± 1.36 µM
- IC50 [2, 7]: 105 ± 2.58 µM
- IC50 ([3]; medium without FBS): 165.1 ± 1.23 µM
- IC50 ([4]; medium without FBS): 67.32 ± 0.25 µM
- IC50 ([6]; medium without FBS): 156 ± 3.56 µM

SMILES: C[C@H](C(=O)N1CCCCC1)C1CCC(C[C@@H](C)O)O1 (some centres unmarked) [Compound 17]
- IC50 ([1]; normal colon epithelial cells): 180 ± 7.88 µM
- IC50 [2, 7]: 339 ± 1.23 µM
- IC50 ([3]; medium without FBS): 563 ± 7.35 µM
- IC50 ([4]; medium without FBS): 199.1 ± 1.9 µM
- IC50 ([6]; medium without FBS): 390 ± 10 µM

SMILES: CC[C@@H](O)CC1CCC([C@H](C)C(=O)Nc2ccccc2N)O1 (some centres unmarked) [Compound 18]
- IC50 ([1]; normal colon epithelial cells): 55.7 ± 7.65 µM
- IC50 [2, 7]: 402.9 ± 0.69 µM
- IC50 ([3]; medium without FBS): 235.7 ± 1.31 µM
- IC50 ([4]; medium without FBS): 108 ± 5.22 µM
- cytotoxic activity toward the tested cell lines (in words) [5]: broad toxicity
- IC50 ([6]; medium without FBS): 302.4 ± 1.83 µM

SMILES: CC[C@@H](O)CC1CCC([C@H](C)C(=O)Nc2nc3ccccc3s2)O1 (some centres unmarked) [Compound 19]
- IC50 ([1]; normal colon epithelial cells): 80.1 ± 3.82 µM
- IC50 ([3]; medium without FBS): 169 ± 4.2 µM
- IC50 ([4]; medium without FBS): 128.5 ± 0.48 µM
- IC50 ([6]; medium without FBS): 270.3 ± 1.09 µM

SMILES: CCC[C@H](CC1CCC([C@H](C)C(=O)O)O1)O[Si](C)(C)C(C)(C)C (some centres unmarked) [Compound 20]
- IC50 ([1]; normal colon epithelial cells): 37 ± 1.39 µM
- IC50 [2, 7]: 323 ± 5.94 µM
- IC50 ([3]; medium without FBS): 356 ± 7.67 µM
- IC50 ([4]; medium without FBS): 215 ± 0.76 µM
- cytotoxic activity toward the tested cell lines (in words) [5]: broad toxicity
- IC50 ([6]; medium without FBS): 284.3 ± 1.24 µM

SMILES: CC(=O)O[C@H]1C(=O)[C@@]2(C)[C@H]([C@H](OC(=O)c3ccccc3)[C@]3(O)C[C@H](OC(=O)[C@H](O)[C@@H](NC(=O)c4ccccc4)c4ccccc4)C(C)=C1C3(C)C)[C@]1(OC(C)=O)CO[C@@H]1C[C@@H]2O [Paclitaxel, reference compound]
- IC50 ([1]; positive control): 0.0182 ± 0.00234 µM
- IC50 ([2]; positive control): 0.00931 ± 0.00188 µM
- IC50 ([3]; positive control): 0.00569 ± 0.00132 µM
- IC50 ([4]; positive control): 0.0458 ± 0.00179 µM
- IC50 ([6]; positive control): 0.0138 ± 0.00212 µM

From publication PMC8704880, “Secondary Metabolites with Cytotoxic Activities from Streptomyces sp. BM-8 Isolated from the Feces of Equus quagga” (Molecules, 2021)
